Results from ChEMBL document CHEMBL4325912, “Discovery of 2-(1H-imidazo-2-yl)piperazines as a new class of potent and non-cytotoxic inhibitors of Trypanosoma brucei growth in vitro” (Bioorg Med Chem Lett, 2018).
Activity calls are given as the source filed them. The calls are words filed in the database; no cut-off is given here.

How the values were obtained:
Trypanosoma brucei [1] = test: Antitrypanosomal activity against Trypanosoma brucei Lister 427 bloodstream forms in presence of 10% FBS after 24 hrs by celltiter glo assay; assay type: functional, organism-based; settings: Lister 427, 24 h
[2] = Cytotoxicity against human HeLa cells assessed as reduction in cell viability after 72 hrs by celltiter glo assay; assay type: cell-based
Plasmodium falciparum = test: Antimalarial activity against Plasmodium falciparum 3D7 infected in human erythrocytes after 72 hrs by spectrophotometric analysis; assay type: functional, organism-based; settings: 3D7, 72 h
[3] = Half life in human hepatocytes; assay type: ADME, cell-based, Hepatocyte
Trypanosoma cruzi = test: Antiparasitic activity against Trypanosoma cruzi; assay type: functional, organism-based
[4] = Cytotoxicity against HUVEC; assay type: cell-based; settings: human
[5] = Selectivity index, ratio of EC50 for Trypanosoma cruzi to EC50 for antitrypanosomal activity against Trypanosoma brucei Lister 427 bloodstream forms; assay type: functional
[6] = Selectivity index, ratio of EC50 for Plasmodium falciparum 3D7 infected in human erythrocytes to EC50 for antitrypanosomal activity against Trypanosoma brucei Lister 427 bloodstream forms; assay type: functional
[7] = Half life in mouse hepatocytes; assay type: ADME, cell-based, Hepatocyte
Trypanosoma brucei [8] = test: Inhibition of Trypanosoma brucei GSK3
Trypanosoma brucei [9] = test: Inhibition of Trypanosoma brucei adenosine kinase
Trypanosoma brucei [10] = test: Inhibition of Trypanosoma brucei Aurora 1 kinase
Trypanosoma brucei [11] = test: Inhibition of Trypanosoma brucei trypanothione reductase
[12] = target: Class 1 histone deacetylase (Homo sapiens, UniProt Q13547+O15379+Q92769+Q9BY41); test: Inhibition of HDAC class 1 in human HeLa cells after 4 hrs by spectrophotometric analysis; assay type: cell-based
Histone deacetylase 1 [13] = target: T1, Histone deacetylase 1 (Homo sapiens, UniProt Q13547); test: Inhibition of human HDAC1 preincubated for 10 mins followed by BML-KI104 substrate addition and measured after 1 hr by spectrophotometric analysis
T1 sequence (Q13547 whole entry): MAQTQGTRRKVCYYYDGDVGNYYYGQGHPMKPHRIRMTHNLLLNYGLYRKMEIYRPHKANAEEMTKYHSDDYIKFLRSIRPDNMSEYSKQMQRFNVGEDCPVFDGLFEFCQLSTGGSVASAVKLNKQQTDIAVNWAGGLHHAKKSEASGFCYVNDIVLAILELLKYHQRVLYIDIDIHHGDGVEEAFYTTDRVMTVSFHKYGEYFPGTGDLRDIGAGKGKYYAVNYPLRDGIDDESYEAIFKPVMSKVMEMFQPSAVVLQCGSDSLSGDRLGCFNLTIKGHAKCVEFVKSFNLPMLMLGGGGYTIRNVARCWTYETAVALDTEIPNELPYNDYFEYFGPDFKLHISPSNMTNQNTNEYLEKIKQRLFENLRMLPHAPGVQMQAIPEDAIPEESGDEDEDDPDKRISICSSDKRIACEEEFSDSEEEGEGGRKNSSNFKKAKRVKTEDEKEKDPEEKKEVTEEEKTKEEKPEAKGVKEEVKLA

Histone deacetylase 3 [14] = target: T2, Histone deacetylase 3 (Homo sapiens, UniProt O15379); test: Inhibition of human HDAC3
T2 sequence (O15379 whole entry): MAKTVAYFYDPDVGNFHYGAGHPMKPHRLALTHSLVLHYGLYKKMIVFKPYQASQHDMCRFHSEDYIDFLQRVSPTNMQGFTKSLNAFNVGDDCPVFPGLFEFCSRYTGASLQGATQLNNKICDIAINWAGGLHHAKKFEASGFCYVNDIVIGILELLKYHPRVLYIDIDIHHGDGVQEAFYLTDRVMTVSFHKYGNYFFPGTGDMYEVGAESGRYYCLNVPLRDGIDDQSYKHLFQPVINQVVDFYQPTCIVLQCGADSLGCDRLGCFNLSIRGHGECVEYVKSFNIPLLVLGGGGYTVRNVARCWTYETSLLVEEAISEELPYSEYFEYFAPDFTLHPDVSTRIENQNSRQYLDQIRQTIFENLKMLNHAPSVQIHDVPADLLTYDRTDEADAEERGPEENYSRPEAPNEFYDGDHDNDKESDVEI

Histone deacetylase 2 [15] = target: T3, Histone deacetylase 2 (Homo sapiens, UniProt Q92769); test: Inhibition of human HDAC2
T3 sequence (Q92769 whole entry): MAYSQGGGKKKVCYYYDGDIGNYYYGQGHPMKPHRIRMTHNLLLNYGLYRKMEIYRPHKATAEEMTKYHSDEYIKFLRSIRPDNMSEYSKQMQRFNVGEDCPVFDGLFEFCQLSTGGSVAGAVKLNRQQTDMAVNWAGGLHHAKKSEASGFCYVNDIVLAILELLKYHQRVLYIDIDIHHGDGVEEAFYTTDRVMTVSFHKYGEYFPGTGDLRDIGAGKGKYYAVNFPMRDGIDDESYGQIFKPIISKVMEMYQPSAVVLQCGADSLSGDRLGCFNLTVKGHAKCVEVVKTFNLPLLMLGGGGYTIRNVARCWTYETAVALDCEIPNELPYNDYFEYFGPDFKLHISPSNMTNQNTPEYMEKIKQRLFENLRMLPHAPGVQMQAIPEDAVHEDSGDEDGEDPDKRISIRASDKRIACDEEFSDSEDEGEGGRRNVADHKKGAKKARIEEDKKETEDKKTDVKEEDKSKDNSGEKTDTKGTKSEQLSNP

[16] = target: T4, Histone deacetylase 7 (Homo sapiens) (UniProt Q8WUI4); test: Inhibition of human HDAC7 up to 5 uM
T4 sequence (whole entry): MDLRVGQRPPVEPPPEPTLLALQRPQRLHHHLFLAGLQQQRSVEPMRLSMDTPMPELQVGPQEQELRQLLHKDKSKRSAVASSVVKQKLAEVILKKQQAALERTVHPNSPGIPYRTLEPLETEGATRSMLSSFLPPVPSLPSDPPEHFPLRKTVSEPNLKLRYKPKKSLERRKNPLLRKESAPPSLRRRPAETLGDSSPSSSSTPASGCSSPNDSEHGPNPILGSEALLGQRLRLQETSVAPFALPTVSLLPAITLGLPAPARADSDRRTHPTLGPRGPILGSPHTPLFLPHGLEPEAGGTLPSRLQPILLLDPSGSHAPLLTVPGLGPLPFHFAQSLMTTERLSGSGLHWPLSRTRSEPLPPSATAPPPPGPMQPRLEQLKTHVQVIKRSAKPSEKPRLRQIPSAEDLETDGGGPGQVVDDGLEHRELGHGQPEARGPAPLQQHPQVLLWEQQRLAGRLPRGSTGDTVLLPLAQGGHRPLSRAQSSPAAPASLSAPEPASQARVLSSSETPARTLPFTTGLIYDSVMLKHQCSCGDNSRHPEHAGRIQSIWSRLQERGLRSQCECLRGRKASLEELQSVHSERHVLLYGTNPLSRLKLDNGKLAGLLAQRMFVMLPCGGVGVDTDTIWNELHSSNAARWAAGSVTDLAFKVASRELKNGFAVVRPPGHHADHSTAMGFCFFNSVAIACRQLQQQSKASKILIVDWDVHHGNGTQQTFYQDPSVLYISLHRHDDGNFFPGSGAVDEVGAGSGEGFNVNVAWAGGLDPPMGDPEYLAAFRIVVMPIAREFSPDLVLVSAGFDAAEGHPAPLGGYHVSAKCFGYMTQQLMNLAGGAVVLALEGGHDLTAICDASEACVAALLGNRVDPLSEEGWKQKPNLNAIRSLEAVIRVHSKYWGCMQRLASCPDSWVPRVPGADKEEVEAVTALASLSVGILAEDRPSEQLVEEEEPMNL

[17] = target: T5, Protein deacetylase HDAC6 (Homo sapiens) (UniProt Q9UBN7); test: Inhibition of human HDAC6 up to 5 uM
T5 sequence (whole entry): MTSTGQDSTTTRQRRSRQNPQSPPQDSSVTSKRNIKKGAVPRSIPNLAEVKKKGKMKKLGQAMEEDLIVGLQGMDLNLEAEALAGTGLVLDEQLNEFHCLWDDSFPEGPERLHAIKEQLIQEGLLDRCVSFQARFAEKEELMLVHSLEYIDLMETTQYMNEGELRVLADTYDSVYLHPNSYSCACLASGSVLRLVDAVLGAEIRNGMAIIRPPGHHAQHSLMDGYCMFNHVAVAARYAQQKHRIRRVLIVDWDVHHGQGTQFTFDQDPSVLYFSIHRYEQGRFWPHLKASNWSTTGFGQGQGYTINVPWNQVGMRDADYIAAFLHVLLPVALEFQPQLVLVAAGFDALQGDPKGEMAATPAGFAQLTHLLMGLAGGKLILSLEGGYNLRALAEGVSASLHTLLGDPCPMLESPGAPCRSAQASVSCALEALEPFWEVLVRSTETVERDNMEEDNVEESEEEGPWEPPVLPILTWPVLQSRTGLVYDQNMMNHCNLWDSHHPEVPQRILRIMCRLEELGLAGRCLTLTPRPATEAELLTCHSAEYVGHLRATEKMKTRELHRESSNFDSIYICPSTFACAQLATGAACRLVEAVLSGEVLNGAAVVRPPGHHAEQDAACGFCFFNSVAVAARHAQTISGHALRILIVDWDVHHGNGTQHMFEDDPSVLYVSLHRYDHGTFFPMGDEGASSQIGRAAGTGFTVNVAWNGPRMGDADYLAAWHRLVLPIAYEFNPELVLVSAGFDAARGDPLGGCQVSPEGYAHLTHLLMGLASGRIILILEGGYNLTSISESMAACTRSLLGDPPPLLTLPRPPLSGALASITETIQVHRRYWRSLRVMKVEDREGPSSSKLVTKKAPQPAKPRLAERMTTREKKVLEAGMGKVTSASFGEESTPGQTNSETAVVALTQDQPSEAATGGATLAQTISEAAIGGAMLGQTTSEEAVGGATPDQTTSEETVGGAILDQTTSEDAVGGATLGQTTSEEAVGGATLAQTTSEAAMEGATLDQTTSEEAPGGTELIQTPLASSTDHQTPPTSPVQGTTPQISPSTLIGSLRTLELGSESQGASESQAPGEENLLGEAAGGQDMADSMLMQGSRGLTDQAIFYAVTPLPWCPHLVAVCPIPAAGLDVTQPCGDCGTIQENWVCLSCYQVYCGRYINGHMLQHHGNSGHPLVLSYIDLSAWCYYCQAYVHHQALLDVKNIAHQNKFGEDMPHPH

[18] = target: Histone deacetylase 4 (Homo sapiens) (UniProt P56524); test: Inhibition of human HDAC4 up to 5 uM
Chain of Histone deacetylase 4 (Homo sapiens) (P56524 whole entry): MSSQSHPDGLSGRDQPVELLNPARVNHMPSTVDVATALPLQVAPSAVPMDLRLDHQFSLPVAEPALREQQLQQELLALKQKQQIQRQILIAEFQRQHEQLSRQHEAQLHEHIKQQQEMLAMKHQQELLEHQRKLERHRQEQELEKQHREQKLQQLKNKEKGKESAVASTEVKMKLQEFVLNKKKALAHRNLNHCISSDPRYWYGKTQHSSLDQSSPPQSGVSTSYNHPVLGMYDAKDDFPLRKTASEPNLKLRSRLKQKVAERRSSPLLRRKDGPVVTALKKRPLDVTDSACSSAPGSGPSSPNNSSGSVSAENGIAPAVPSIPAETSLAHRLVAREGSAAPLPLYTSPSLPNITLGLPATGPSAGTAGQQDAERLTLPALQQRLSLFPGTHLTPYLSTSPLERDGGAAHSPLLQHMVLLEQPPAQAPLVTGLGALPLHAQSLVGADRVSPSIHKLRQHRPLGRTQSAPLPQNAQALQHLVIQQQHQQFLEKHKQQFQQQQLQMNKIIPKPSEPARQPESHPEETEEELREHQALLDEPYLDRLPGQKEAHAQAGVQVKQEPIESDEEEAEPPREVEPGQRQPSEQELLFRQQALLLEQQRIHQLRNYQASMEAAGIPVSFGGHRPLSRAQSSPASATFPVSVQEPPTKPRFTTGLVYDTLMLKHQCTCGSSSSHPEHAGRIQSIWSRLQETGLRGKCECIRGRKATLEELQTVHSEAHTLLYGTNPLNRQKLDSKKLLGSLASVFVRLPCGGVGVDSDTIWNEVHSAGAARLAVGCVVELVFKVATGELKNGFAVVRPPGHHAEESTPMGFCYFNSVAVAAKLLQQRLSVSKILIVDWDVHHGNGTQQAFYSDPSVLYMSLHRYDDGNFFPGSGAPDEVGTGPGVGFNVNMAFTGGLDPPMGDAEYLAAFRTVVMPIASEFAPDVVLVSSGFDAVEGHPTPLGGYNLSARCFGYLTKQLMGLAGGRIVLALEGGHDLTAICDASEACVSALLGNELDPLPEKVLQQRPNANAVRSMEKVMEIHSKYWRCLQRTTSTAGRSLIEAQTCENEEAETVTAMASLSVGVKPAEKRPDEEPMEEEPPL

Histone deacetylase 3 [19] = target: T2, Histone deacetylase 3; test: Inhibition of human HDAC3 up to 5 uM
Histone deacetylase 1 [20] = target: T1, Histone deacetylase 1; test: Inhibition of human HDAC1 up to 5 uM preincubated for 10 mins followed by BML-KI104 substrate addition and measured after 1 hr by spectrophotometric analysis
[21] = target: Histone deacetylase 9 (Homo sapiens) (UniProt Q9UKV0); test: Inhibition of human HDAC9 up to 5 uM
Chain of Histone deacetylase 9 (Homo sapiens) (Q9UKV0 whole entry): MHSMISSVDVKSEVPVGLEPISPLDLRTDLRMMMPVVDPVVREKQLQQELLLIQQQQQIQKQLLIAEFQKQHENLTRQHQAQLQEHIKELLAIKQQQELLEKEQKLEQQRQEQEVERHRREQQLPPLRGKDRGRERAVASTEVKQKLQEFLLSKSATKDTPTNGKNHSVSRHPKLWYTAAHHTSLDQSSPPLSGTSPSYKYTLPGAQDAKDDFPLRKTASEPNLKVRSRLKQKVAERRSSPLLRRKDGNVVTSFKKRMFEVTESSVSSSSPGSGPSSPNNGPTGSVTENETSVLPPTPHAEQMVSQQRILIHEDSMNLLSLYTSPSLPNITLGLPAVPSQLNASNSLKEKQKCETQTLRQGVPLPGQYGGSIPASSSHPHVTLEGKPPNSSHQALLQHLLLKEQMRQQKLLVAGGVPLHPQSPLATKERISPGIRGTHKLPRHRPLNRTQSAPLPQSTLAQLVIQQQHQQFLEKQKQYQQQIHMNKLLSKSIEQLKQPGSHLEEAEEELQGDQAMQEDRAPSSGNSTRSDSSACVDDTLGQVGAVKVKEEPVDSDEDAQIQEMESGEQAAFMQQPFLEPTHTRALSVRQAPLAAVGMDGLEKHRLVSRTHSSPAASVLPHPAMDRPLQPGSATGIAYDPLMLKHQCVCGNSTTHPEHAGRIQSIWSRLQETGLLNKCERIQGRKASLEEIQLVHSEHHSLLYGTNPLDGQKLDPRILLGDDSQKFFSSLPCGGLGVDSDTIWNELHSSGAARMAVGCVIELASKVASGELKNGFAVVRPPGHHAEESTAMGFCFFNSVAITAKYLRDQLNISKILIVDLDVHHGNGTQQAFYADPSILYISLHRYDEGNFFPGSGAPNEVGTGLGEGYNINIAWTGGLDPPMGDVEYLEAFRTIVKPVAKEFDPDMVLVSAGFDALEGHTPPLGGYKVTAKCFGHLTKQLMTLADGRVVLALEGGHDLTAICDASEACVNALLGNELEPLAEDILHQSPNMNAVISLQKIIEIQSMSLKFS

[22] = target: T6, Histone deacetylase 8 (Homo sapiens) (UniProt Q9BY41); test: Inhibition of human HDAC8 up to 5 uM
T6 sequence (whole entry): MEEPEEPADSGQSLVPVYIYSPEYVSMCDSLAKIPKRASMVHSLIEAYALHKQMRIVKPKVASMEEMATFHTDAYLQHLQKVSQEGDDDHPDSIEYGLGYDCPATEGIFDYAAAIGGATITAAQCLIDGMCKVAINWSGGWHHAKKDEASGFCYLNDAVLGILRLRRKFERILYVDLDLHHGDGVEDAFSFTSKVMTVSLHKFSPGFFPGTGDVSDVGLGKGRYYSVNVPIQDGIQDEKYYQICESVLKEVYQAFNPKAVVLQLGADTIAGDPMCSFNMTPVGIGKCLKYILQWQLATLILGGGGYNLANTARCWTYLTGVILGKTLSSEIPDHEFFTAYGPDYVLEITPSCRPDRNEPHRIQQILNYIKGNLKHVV

Histone deacetylase 2 [23] = target: T3, Histone deacetylase 2; test: Inhibition of human HDAC2 up to 5 uM
[24] = target: Histone deacetylase 5 (Homo sapiens) (UniProt Q9UQL6); test: Inhibition of human HDAC5 up to 5 uM
Chain of Histone deacetylase 5 (Homo sapiens) (Q9UQL6 whole entry): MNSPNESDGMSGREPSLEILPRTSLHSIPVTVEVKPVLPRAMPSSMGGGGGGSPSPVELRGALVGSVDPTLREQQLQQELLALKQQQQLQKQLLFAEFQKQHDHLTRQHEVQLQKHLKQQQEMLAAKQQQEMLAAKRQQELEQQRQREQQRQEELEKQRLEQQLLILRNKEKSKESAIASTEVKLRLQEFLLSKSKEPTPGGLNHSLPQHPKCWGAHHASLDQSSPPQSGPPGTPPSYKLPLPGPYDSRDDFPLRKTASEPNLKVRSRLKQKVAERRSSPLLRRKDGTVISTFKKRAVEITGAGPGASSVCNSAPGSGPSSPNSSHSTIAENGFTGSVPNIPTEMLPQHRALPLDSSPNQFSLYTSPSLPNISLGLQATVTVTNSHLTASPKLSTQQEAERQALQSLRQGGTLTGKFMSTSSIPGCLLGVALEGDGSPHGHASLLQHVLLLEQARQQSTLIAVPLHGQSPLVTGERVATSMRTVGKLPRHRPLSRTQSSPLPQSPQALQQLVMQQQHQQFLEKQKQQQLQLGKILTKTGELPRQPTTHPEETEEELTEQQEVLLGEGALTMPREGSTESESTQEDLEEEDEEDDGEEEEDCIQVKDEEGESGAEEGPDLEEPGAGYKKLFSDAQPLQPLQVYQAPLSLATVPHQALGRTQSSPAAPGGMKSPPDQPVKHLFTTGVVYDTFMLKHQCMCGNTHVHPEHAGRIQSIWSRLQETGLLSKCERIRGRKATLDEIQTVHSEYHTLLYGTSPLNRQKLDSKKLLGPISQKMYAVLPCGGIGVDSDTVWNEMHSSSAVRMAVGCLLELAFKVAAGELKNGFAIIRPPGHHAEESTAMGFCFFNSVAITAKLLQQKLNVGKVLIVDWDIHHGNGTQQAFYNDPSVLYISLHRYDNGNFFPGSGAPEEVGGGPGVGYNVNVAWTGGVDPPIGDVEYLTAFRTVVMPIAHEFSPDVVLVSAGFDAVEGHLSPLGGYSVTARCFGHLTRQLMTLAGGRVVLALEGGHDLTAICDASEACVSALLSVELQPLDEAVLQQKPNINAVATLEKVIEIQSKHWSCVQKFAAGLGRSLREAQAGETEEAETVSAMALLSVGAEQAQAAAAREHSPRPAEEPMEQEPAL

Compound	EC50 (Trypanosoma brucei [1])	CC50 at 72 h [2]	further results
CCC(=O)CCCN1CCN(C(C)=O)C(c2ncc(-c3ccc4ccccc4c3)[nH]2)C1 (configuration not stated)	> 25 µM	> 32 µM	–
CCC(=O)CCCN1CCN(S(=O)(=O)c2ccccc2)C(c2ncc(-c3ccc4ccccc4c3)[nH]2)C1 (configuration not stated)	4.12 µM	> 25 µM	–
CCCCCCN1CCN(C(=O)Cc2c(C)[nH]c3ccc(OC)cc23)C(c2ncc(-c3ccc4ccccc4c3)[nH]2)C1 (configuration not stated)	0.079 µM	> 25 µM	–
COc1ccc2[nH]c(C)c(CC(=O)N3CCN(CCCC(=O)O)CC3c3ncc(-c4ccc5ccccc5c4)[nH]3)c2c1 (configuration not stated)	1.1 µM	> 50 µM	–
COc1ccc2[nH]c(C)c(CC(=O)N3CCN(CC4CCOC4)CC3c3ncc(-c4ccc5ccccc5c4)[nH]3)c2c1 (mixture of isomers)	0.005 µM	> 25 µM	EC50 (Plasmodium falciparum): 3.62 µM; half-life [3]: 2.4 h; EC50 (Trypanosoma cruzi): 8.12 µM; CC50 [4]: 18.7 µM; Ratio EC50 [5]: 1000; Ratio EC50 [6]: 1000; half-life [7]: 0.4 h
COC(=O)CCCN1CCN(C(=O)Cc2c(C)[nH]c3ccc(OC)cc23)C(c2ncc(-c3ccc4ccccc4c3)[nH]2)C1 (configuration not stated)	0.154 µM	28.8 µM	–
COc1ccc2[nH]c(C)c(CC(=O)N3CCN(C)CC3c3ncc(-c4ccc5ccccc5c4)[nH]3)c2c1 (configuration not stated)	0.038 µM	> 25 µM	inhibition (Trypanosoma brucei [8]): inactive; inhibition (Trypanosoma brucei [9]): inactive; inhibition (Trypanosoma brucei [10]): inactive; inhibition (Trypanosoma brucei [11]): inactive
CCC(=O)CCCN1CCN(C(=O)Cc2c(C)[nH]c3ccc(OC)cc23)C(c2ncc(-c3ccc4ccccc4c3)o2)C1 (configuration not stated)	1.26 µM	20.6 µM	–
CCC(=O)CCCN1CCN(C(=O)Nc2ccccc2)C(c2ncc(-c3ccc4ccccc4c3)[nH]2)C1 (configuration not stated)	1.43 µM	> 25 µM	–
CCC(=O)CCCN1CCN(C(=O)Cc2c[nH]c3ccccc23)[C@@H](c2ncc(-c3ccc4ccccc4c3)[nH]2)C1	4.36 µM	> 32 µM	–
CCC(=O)CCCN1CCN(C(=O)Cc2c[nH]c3ccccc23)C(c2ncc(-c3ccc4ccccc4c3)[nH]2)C1 (configuration not stated)	0.489 µM	> 25 µM	IC50 [12]: > 25 µM; IC50 (Histone deacetylase 1 [13]): > 25 µM; IC50 (Histone deacetylase 3 [14]): > 25 µM; IC50 (Histone deacetylase 2 [15]): > 25 µM
CCC(=O)CCCN1CCN(C(=O)Oc2ccccc2)C(c2ncc(-c3ccc4ccccc4c3)[nH]2)C1 (configuration not stated)	1.22 µM	16.6 µM	–
CCC(=O)CCCN1CCN(C(=O)Cc2ccccc2)C(c2ncc(-c3ccc4ccccc4c3)[nH]2)C1 (configuration not stated)	1.8 µM	> 25 µM	–
COc1ccc2[nH]c(C)c(CC(=O)N3CCN(CCCC(C)O)CC3c3ncc(-c4ccc5ccccc5c4)[nH]3)c2c1 (configuration not stated)	0.013 µM	13.1 µM	–
CCC(=O)CCC(=O)N1CCN(C(=O)Cc2c(C)[nH]c3ccc(OC)cc23)C(c2ncc(-c3ccc4ccccc4c3)[nH]2)C1 (configuration not stated)	0.492 µM	> 25 µM	–
CCC(=O)CCCN1CCN(C(=O)Cc2c[nH]c3ncccc23)C(c2ncc(-c3ccc4ccccc4c3)[nH]2)C1 (configuration not stated)	0.545 µM	> 25 µM	–
CCC(=O)CCCN1CCN(Cc2ccccc2)C(c2ncc(-c3ccc4ccccc4c3)[nH]2)C1 (configuration not stated)	1.72 µM	14.7 µM	–
CNC(=O)CCCN1CCN(C(=O)Cc2c(C)[nH]c3ccc(OC)cc23)C(c2ncc(-c3ccc4ccccc4c3)[nH]2)C1 (configuration not stated)	0.148 µM	> 5 µM	–
CCC(=O)CCCN1CCN(C(=O)Cc2c[nH]c3ccccc23)[C@H](c2ncc(-c3ccc4ccccc4c3)[nH]2)C1	0.423 µM	> 25 µM	–
COc1ccc2[nH]c(C)c(CC(=O)N3CCN(CCCC(N)=O)CC3c3ncc(-c4ccc5ccccc5c4)[nH]3)c2c1 (configuration not stated)	0.207 µM	> 25 µM	–
COc1ccc2[nH]c(C)c(CC(=O)N3CCN(CC4CC4)CC3c3ncc(-c4ccc5ccccc5c4)[nH]3)c2c1 (configuration not stated)	0.016 µM	> 25 µM	–
CCC(=O)CCCN1CCN(C(=O)c2ccccc2)C(c2ncc(-c3ccc4ccccc4c3)[nH]2)C1 (configuration not stated)	1.56 µM	> 32 µM	–
CCC(=O)CCCN1CCN(C(=O)Cc2c(C)[nH]c3ccc(OC)cc23)C(c2nnc(-c3ccc4ccccc4c3)o2)C1 (configuration not stated)	0.304 µM	> 25 µM	–
CCC(=O)CCCN1CCN(C(=O)Cc2c(C)[nH]c3ccc(OC)cc23)C(c2ncc(-c3ccc4ccccc4c3)[nH]2)C1 (configuration not stated)	0.01 µM	12.3 µM	inhibition [16]: inactive; inhibition [17]: inactive; inhibition [18]: inactive; inhibition (Histone deacetylase 3 [19]): inactive; inhibition (Histone deacetylase 1 [20]): inactive; inhibition [21]: inactive; inhibition [22]: inactive; inhibition (Histone deacetylase 2 [23]): inactive; inhibition [24]: inactive
